Laboratory results as given in patent US20170162898A1, “Quaternary Ammonium Halides With Ether Functional Groups For Use As Battery Electrolytes” (Albemarle Corporation, priority 2014, published 2017).
Several values for one entry are separate records, joined by “and”; a condition that tells them apart may be missing. Equal entries are not always repeated.

What was measured:
[1] = Measurement of free bromine in aqueous phase; assay type: physicochemical; settings: stirred 24 hrs, top aqueous phase, wt %
Excerpt: The forward operation of a bromine-containing battery generally involves the conversion of elemental bromine to ionic bromine. The quat/Br2 complex results from an equilibrium reaction in which the Br2 is released from the complex as the concentration of free Br2 in the aqueous electrolyte drops during battery operation. In its fully charged state, the electrolyte solution inevitably contains some degree of uncomplexed bromine. A measure of a quat's ability to complex elemental bromine is the amount of elemental bromine left in solution when the complexation reaction proceeds to equilibrium. Such bromine is referred to as “free bromine.” Measurement of free bromine in aqueous phase is set forth in Example 1.
Two slightly different methods were used to prepare the electrolyte compositions, A) one containing 0.7M quat and B) the other containing 0.8M quat. In composition A, 2.0 moles of bromine was added to an aqueous solution containing 0.5 moles of zinc bromide and 0.7 moles of the quat. The two-phase mixture was stirred for 24 hrs. and then the phases were allowed to settle. The top aqueous phase was sampled for free bromine measurement. In composition B, 1.44 moles of bromine was added to an aqueous solution containing 0.5 moles of zinc bromide, 0.4 moles of zinc chloride and 0.8 moles of the quat. The top aqueous phase obtained after stirring for 24 hrs. was used for free bromine measurement.
A 250-ml Erlenmeyer flask was charged with 50 ml of deionized water and weighed (A). A sample of the clear aqueous phase was passed through glass wool to remove any suspended organic phase and then added to the Erlenmeyer flask. The flask was weighed again (B) and the difference in weight (B-A) was noted as the weight of the sample. About 20 ml of 20% potassium iodide solution followed by about 5 ml of starch solution was added to the flask. The resulting dark mixture was titrated against 0.02N sodium thiosulfate solution. The end-point was the disappearance of purple color. Free bromine (wt %) was calculated in the following manner:
Wt % free Br2=Volume (ml) of sodium Thiosulfate×Normality of Sodium thisosulfate/Sample Weight.

[2] = Cloud point determination (solubility in ZnBr2 solution); settings: for Solubility in ZnBr2 Cloud Point: 0.7 M quat in 2.5M Zinc Bromide water solution
Protocol: By “cloud point” is meant the cloud point of an aqueous solution containing 0.7 M complexing agent and 2.5 M zinc bromide.
A 0.7M quaternary ammonium bromide in 2.5M Zinc Bromide water solution was prepared. • 2. The solution was transferred to a jacketed flask with a stirring bar and temperature monitor. • 3. The solution was warmed to 15° C. above the expected cloud point. If necessary, any moisture or impurities were removed by filtration. • 4. The solution was stirred, with speed adjustment to about 250 rpm, while avoiding the formation of bubbles. • 5. The solution was cooled gradually (cooling rate of about 1° C./5 min). • 6. The sample was inspected carefully for signs of cloudiness, and the temperature at which cloudiness was observed was recorded to the nearest 0.1° C.

[3] = Free bromine in electrolyte with chloroquat or bromoquat (Example 8); assay type: physicochemical; settings: 0.84 M zinc bromide, 0.8 M quat, 1.44 M bromine; stirred for 24 hrs at 35° C.
Protocol: Chloride ions are added to the electrolyte in amounts sufficient to reduce the amount of free bromine present and increase the electrolyte conductivity during charging of the cell. Chloride ions in the electrolyte may come from zinc chloride or quaternary ammonium chloride complexing agent.
Experiment 1 of Example 8: An aqueous electrolyte system was prepared having 0.84 M zinc bromide, 0.8 NI chloroquat (N-methyl, N-butyl pyrrolidinium chloride) and 1.44 M bromine. After the sample was stirred for 24 hrs at 35° C., the amount of free bromine present in the electrolyte was 0.26%.
Experiment 2 of Example 8: An aqueous electrolyte system was prepared having 0.84 M zinc bromide, 0.8 M bromoquat (N-methyl, N-butyl pyrrolidinium bromide) and 1.44 NI bromine. After the sample was stirred for 24 hrs at 35° C., the amount of free bromine present in the electrolyte was 0.25%.

[4] = 0.7 M quat (composition A: 0.5 moles zinc bromide, 2.0 moles bromine)
[5] = 0.8 M quat (composition B: 0.5 moles zinc bromide, 0.4 moles zinc chloride, 1.44 moles bromine)

| Free Br2 [1, 4] | Solubility in ZnBr2 Cloud Point [2] | Compound | other results |
| --- | --- | --- | --- |
| 0.658% and 0.7 M 0.658% |  | CC[N+](CC)(CC)CCOC.[Br-] [Compound 2, (2-methoxyethyl)-triethylammonium bromide] | Free Br2 [1, 5]: 0.467% and 0.8 M 0.467% |
| 0.7 M 0.70% |  | CC[N+](C)(CC)CCOC.[Br-] [Compound 4, diethylmethyl-(2-methoxyethyl)ammonium bromide] |  |
|  |  | CCC[N+](C)(C)CC.[Br-] [DMEP, dimethylethylpropyl ammonium bromide, reference compound] | cloud point ([2]; solution 0.7M in DMEP and 2.5M in ZnBr2): about 23.2 °C |
|  | 0.7 M, 45.8 C. | CCC[N+]1(CC)CCCCC1 [Compound 10, EthyPropyl Piperidinium Bromide] | Free Br2 [1, 5]: 0.026% and 0.8 M 0.026% |
|  | 0.7 M, 11.9 C. | CC[N+]1(CC)CCCCC1.[Br-] [Compound 9, Diethyl Piperidinium Bromide] | Free Br2 [1, 5]: 0.26% and 0.8 M 0.26% |
| 0.7 M 0.28% | 0.7 M, 29 C. | CCCC[N+](C)(C)CCOC.[Br-] [Compound 1, Dimethylbutylether Quat Bromide] |  |
|  |  | CCCC[N+]1(C)CCCC1.[Cl-] [chloroquat, N-methyl, N-butyl pyrrolidinium chloride] | amount of free bromine present in the electrolyte [3]: 0.26% |
| 0.089% and 0.7 M 0.089% | 0.7 M, 41.2 C. | CCC[N+](CC)(CC)CC.[Br-] [Compound 5, triethylpropylammonium bromide] |  |
|  |  | CCCC[N+]1(C)CCCC1.[Br-] [bromoquat, N-methyl, N-butyl pyrrolidinium bromide] | amount of free bromine present in the electrolyte [3]: 0.25% |

| Compound | Free Br2 [1, 4] | Solubility in ZnBr2 Cloud Point [2] | other results |
| --- | --- | --- | --- |
| CC[N+](C)(C)CCCC[N+](C)(C)CC.[Br-].[Br-] [Compound 15, Dimethylethyl Gemini Quat Bromide with Butyl Linkage] | 0.59% and 0.7 M 0.59% | 0.7 M, 89.2 C. |  |
| CC[N+](C)(C)CCOCC[N+](C)(C)CC.[Br-].[Br-] [Compound 14, Dimethylethyl Gemini Quat Bromide with Diethylether Linkage] | 0.71% and 0.7 M 0.71% | 0.7 M, 48.2 C. |  |
